“Also recorded” adds a separate entry of the source.
What was measured:
PGE2 = PGE2 release by PMA-stimulated NHEK (ELISA); type: cell-based, human; conditions: for PGE2 release, % of the control: highest tested concentration; for PGE2 release, % of the control / Effect on PGE2 release (in words) / PGE2 release, % of relative inhibition: PMA-stimulated keratinocytes; for PGE2 release, % of relative inhibition: concentration not given; for PGE2 release, % Relative inhibition: NHEK, PMA 0.5 μg/ml, 24 h
Protocol: (§1) The effects on normal human epidermal keratinocytes (NHEK) were measured by assessing IL-8 and PGE2 release by PMA-stimulated NHEK using specific ELISA kits.
(§2) Normal human epidermal keratinocytes (NHEK): • Cell type: NHEK • Culture conditions: 37° C., 5% CO2 • Culture medium: Keratinocyte SFM supplemented with Epidermal Growth Factor (EGF) 0.25 ng/ml • Pituitary extract (PE) 25 μg/ml • Gentamycin 25 μg/ml • Assay medium 1: Epilife® medium supplemented with PE 0.2% • Bovine transferrin 5 μg/ml • EGF 0.2 ng/ml • Insulin 5 μg/ml • Gentamycin/Amphotericin • Assay medium 2: Keratinocyte SFM supplemented with Gentamycin 25 μg/ml
(§3) Keratinocytes were seeded in 96-well plates and cultured for 24 hours in culture medium. […] After pre-incubation, the medium was removed and replacedby assay medium 1 containing or not (stimulated control) the compounds or the reference compound and containing the inducer (PMA tested at 0.5 μg/ml). The cells were then incubated for 24 hours. In parallel, a non-stimulated control condition was performed.
(§4) All experimental conditions were performed in n=3. At the end of incubation, the culture supernatants were collected for IL-8 and PGE2 quantifications.
(§5) IL-8 and PGE2 released in the culture supernatants were measured using specific ELISA kits according to the supplier's instructions.

IL-8 = IL-8 release by PMA-stimulated NHEK (ELISA); type: cell-based, human; conditions: for Effect on IL-8 release (in words): PMA-stimulated keratinocytes; for IL-8 release, % Relative inhibition: NHEK, PMA 0.5 μg/ml, 24 h
Protocol: as §1, §2, §3, §4, §5

## CCCCCc1cc(O)c(C/C=C(\C)CCC=C(C)C)c(O)c1C(=O)O [CBGA, cannabigerolic acid, reference compound]
PGE2
  PGE2 release, % of the control: 182%

## O=C1O[C@H]([C@@H](O)CO)C(O)=C1O [L-Ascorbic acid, reference compound]
PGE2
  Effect on PGE2 release (in words): overall the same effect at all tested concentrations; also recorded: significantly limited
  PGE2 release, % of relative inhibition: ~145%

## C=C(C)[C@@H]1CCC(C)=C[C@H]1c1c(O)cc(CCCCC)cc1O [CBD, cannabidiol, reference compound]
PGE2
  PGE2 release, % of the control: 185%
IL-8; tested at 0.3 μM
  Effect on IL-8 release (in words): overstimulated IL-8 release

## CCCCCc1cc(O)c(C/C=C(\C)CCC=C(C)C)c(O)c1 [CBG, cannabigerol]
PGE2
  Effect on PGE2 release (in words): significant at all tested concentrations; also recorded: significantly inhibited
  PGE2 release, % of relative inhibition: about 160%
IL-8; concentration not given
  Effect on IL-8 release (in words): significantly inhibited
IL-8; tested at 3 (unit not given)
  Effect on IL-8 release (in words): strongly inhibited

## COc1ccc2c(c1)c(CC(=O)O)c(C)n2C(=O)c1ccc(Cl)cc1 [Indomethacin, indomethacin, reference compound]
PGE2; 1 μM
  PGE2 release, % Relative inhibition: >169%

## C=C(C)[C@@H]1CCC(C)=C[C@H]1c1c(O)cc(CCCCC)c(C(=O)O)c1O [CBDA, cannabidiolic acid, reference compound]
PGE2
  Effect on PGE2 release (in words): did not modulate

## CCCc1cc(O)c(C/C=C(\C)CCC=C(C)C)c(O)c1C(=O)O [CBGVA, cannabigerovarinic acid]
PGE2; 0.1 μM
  PGE2 release, % Relative inhibition: 19%
PGE2; 0.3 μM
  PGE2 release, % Relative inhibition: 65%
PGE2; 1 μM
  PGE2 release, % Relative inhibition: >162%
PGE2
  Effect on PGE2 release (in words): significant effect only when tested at the highest concentration; also recorded: inhibited
  PGE2 release, % of relative inhibition: about 160%
IL-8; 0.1 μM
  IL-8 release, % Relative inhibition: 2%
IL-8; 0.3 μM
  IL-8 release, % Relative inhibition: 11%
IL-8; 1 μM
  IL-8 release, % Relative inhibition: 9%

Source: patent US20220347071A1, “USE OF CANNABINOIDS IN THE TREATMENT OF ORAL INFLAMMATION AND PERIODONTAL DISEASE” (priority 2021, published 2022)
